How the values were obtained:
Tissue kallikrein = Tissue kallikrein (Homo sapiens, UniProt P06870); assay: isolated enzyme kinetic fluorogenic substrate IC50 assay; assay type: biochemical; conditions: 5 min pre‐incubation
Protocol: (§3) Protease inhibition was measured by monitoring the rate of fluorescence generation at a fixed substrate concentration over a range of inhibitor concentrations. […] To estimate the IC50, a 4‐parameter logistic dose‐response curve was fitted to the normalized rate of fluorescence increase.

FXIIa = FXIIa (Homo sapiens, UniProt P00748); assay: as above; assay type: biochemical; conditions: 5 min pre‐incubation
Protocol: as §3

FXIa = FXIa (Homo sapiens, UniProt P03951); assay: as above; assay type: biochemical; conditions: 5 min pre‐incubation
Protocol: as §3

FXa = FXa (Homo sapiens, UniProt P00742); assay: as above; assay type: biochemical; conditions: 5 min pre‐incubation
Chain of FXa (P00742 235-488 limits assumed): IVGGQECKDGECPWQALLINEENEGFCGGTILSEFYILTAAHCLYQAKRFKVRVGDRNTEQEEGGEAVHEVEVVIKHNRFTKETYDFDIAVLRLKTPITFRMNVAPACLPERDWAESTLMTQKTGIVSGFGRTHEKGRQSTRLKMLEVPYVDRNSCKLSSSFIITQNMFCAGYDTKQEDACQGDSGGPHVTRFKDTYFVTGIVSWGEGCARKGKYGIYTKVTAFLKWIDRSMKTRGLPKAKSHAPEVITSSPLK
Chain of FXa (P00742 41-179 partner limits assumed): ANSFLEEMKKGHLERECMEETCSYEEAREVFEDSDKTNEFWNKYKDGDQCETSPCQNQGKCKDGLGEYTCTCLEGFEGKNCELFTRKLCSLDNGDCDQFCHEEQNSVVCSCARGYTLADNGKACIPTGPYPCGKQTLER
Protocol: as §3

FVIIa = FVIIa (Homo sapiens, UniProt P08709); assay: as above; assay type: biochemical; conditions: 5 min pre‐incubation
Chain of FVIIa (P08709 213-466 limits assumed): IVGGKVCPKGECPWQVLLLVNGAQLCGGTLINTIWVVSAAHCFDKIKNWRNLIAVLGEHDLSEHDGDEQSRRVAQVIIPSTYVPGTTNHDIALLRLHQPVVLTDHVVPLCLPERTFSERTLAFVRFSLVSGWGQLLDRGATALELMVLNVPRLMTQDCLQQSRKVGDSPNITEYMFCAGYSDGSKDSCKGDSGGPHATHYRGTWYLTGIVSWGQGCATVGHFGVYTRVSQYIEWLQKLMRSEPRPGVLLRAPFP
Chain of FVIIa (P08709 61-212 partner limits assumed): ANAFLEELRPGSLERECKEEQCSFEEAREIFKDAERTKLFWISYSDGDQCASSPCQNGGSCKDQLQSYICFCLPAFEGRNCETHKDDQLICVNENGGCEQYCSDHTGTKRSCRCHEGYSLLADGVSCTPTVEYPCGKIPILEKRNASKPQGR
Protocol: as §3

Plasmin = Plasmin (Homo sapiens, UniProt P00747); assay: as above; assay type: biochemical; conditions: 5 min pre‐incubation
Chain of Plasmin (P00747 581-810 limits assumed): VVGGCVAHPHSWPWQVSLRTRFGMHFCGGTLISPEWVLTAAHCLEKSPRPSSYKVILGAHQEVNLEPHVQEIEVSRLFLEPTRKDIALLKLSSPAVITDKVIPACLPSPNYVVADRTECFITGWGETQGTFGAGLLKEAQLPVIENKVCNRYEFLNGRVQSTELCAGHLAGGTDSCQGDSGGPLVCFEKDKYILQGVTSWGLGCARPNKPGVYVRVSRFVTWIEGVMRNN
Chain of Plasmin (P00747 97-580 partner limits assumed): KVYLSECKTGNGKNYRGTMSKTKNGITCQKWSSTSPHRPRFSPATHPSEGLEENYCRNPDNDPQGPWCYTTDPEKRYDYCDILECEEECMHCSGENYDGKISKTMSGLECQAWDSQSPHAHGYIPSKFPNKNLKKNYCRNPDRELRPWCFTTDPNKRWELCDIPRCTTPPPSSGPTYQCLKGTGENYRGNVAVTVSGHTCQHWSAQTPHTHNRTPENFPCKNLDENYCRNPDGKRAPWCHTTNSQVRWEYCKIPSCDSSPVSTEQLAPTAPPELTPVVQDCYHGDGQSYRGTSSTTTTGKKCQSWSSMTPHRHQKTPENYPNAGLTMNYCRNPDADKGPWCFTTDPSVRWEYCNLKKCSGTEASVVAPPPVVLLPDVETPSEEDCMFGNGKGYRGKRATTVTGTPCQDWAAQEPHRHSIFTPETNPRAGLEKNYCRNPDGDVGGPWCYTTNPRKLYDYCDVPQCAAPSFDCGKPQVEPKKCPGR
Protocol: as §3

Thrombin = Thrombin (Homo sapiens, UniProt P00734); assay: as above; assay type: biochemical; conditions: 5 min pre‐incubation
Protocol: as §3

Trypsin = assay: as above; assay type: biochemical, human; conditions: 5 min pre‐incubation
Protocol: as §3

Beta‐secretase 1 = Beta‐secretase 1 (Homo sapiens, UniProt P56817); assay: as above; assay type: biochemical; conditions: 5 min pre‐incubation
Chain of Beta‐secretase 1 (P56817 46-501): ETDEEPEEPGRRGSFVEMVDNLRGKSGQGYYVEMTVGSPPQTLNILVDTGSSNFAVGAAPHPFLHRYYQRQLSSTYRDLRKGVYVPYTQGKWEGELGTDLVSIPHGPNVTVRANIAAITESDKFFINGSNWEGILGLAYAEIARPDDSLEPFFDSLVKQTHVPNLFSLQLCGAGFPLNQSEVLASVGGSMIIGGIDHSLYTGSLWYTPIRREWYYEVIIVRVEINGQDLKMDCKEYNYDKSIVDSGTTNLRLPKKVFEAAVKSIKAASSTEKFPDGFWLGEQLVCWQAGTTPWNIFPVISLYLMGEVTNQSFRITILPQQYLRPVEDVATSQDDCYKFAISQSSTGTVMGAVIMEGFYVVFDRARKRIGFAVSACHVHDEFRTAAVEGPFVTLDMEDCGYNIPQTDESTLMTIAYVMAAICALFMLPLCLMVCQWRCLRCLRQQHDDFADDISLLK
Protocol: as §3

Cathepsin D = Cathepsin D (Homo sapiens, UniProt P07339); assay: as above; assay type: biochemical; conditions: 5 min pre‐incubation
Protocol: as §3

Cathepsin G = Cathepsin G (Homo sapiens, UniProt P08311); assay: as above; assay type: biochemical; conditions: 5 min pre‐incubation
Chain of Cathepsin G (P08311 21-255): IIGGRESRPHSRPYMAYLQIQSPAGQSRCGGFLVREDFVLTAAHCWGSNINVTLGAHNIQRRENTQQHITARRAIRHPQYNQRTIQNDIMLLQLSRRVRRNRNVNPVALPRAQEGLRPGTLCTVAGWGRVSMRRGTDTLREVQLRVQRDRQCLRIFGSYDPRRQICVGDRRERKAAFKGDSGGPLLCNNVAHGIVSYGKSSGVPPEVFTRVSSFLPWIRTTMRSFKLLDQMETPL
Protocol: as §3

Renin = Renin (Homo sapiens, UniProt P00797); assay: as above; assay type: biochemical; conditions: 5 min pre‐incubation
Chain of Renin (P00797 67-406): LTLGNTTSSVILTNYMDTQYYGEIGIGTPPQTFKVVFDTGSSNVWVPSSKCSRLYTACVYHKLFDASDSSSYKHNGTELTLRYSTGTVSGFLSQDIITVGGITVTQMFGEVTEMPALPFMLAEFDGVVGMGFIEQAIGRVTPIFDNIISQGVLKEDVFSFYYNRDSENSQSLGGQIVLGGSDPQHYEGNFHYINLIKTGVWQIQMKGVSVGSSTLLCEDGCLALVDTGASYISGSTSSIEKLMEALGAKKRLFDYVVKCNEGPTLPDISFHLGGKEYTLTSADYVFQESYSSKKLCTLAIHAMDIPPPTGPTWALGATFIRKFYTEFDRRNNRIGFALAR
Protocol: as §3

[1] = biological target: Tissue plasminogen activator (Homo sapiens, UniProt P00750); assay: as above; assay type: biochemical; conditions: 5 min pre‐incubation
Chain of Tissue plasminogen activator (P00750 36-562): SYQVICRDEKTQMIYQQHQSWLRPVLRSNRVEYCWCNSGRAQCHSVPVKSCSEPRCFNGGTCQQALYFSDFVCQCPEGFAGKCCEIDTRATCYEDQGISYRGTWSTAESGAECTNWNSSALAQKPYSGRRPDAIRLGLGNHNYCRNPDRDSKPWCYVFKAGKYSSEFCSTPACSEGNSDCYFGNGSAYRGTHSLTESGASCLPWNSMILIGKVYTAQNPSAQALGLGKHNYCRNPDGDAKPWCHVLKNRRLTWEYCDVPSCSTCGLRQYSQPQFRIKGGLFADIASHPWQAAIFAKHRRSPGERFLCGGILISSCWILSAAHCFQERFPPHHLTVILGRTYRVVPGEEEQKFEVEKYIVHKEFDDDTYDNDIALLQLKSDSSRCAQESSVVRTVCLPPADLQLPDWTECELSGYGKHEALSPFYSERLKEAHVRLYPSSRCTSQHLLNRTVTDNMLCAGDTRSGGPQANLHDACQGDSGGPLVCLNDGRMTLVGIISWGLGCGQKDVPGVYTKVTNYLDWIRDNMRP
Protocol: as §3

Tryptase = assay: as above; assay type: biochemical, human; conditions: 5 min pre‐incubation
Protocol: as §3

[2] = plasma protein binding, Rapid Equilibrium Dialysis; assay type: in vitro ADME; conditions: human, pH 7.4, control plasma, dialysed 5 h at 37°C, read-out: plasma protein binding (PPB) (converted)
Protocol: PKa enzyme activity was measured in human pooled plasma (control plasma, Affinity Biologicals) using H‐D‐Pro‐Phe‐Arg‐AFC. The KKS in plasma was stimulated by the addition of dextran sulphate 500 kDa (DXS; Sigma‐Aldrich). PKa activity in the plasma was estimated based on the maximum rate of fluorescence increase. […] Percent plasma protein binding (PPB %) was determined using Rapid Equilibrium Dialysis (Pierce RED technology, ThermoFisher Scientific). Compounds were spiked into control plasma (final concentration 5 μM) and dialysed against phosphate buffer (pH 7.4) for 5 h at 37°C. Samples were analysed using liquid chromatography‐tandem mass spectrometry to quantify the fraction of unbound compound.

PKa‐mediated HK cleavage = assay: capillary‐based immunoassay of DXS‐stimulated HK cleavage in control plasma; assay type: biochemical, human; conditions: for DXS‐stimulated generation of cHK: 6.25 µg/ml DXS
Protocol: (§1) Undiluted plasma samples obtained at pre‐dose and post‐dose from healthy controls and HAE patients from clinical trials with KVD900, described below, were stimulated with DXS, as described above. Reactions were stopped by rapidly heating samples to 95°C for 10 min in Laemmli buffer containing β‐mercaptoethanol. Components of the KKS in plasma samples (diluted 1:20) were separated by capillary electrophoresis using 12–230 kDa separation modules in the Protein Simple WES^TM system (ProteinSimple). Proteins were detected by immunoassay and quantified from peak areas corresponding to chemiluminescence intensities using Compass for Simple Western software (Version 4.0.0, ProteinSimple) and visualized as virtual blots generated from capillary electropherograms as previously described.[18] Standard curves were generated to estimate protein concentrations in plasma using known quantities of purified HK, plasma prekallikrein (PK), FXII and FXIIa (Enzyme Research Laboratories), spiked into HK (Affinity Biologicals), PK (Affinity Biologicals) and FXII (Technoclone) deficient plasma respectively. Immunodetection was performed using primary antibodies for PK (clone 13G11) (Invitrogen), HK and cHK: KNG17A12 Antibody (Molecular Innovations), FXII and FXIIa: FXII20B2 antibody (Molecular Innovations) and horseradish peroxidase‐conjugated secondary antibody. The anti‐HK light chain antibody used detected HK and two cHK bands. The total cHK was quantified by taking the sum of the peak areas for both cHK bands.

PKa [3] = biological target: T1, PKa (Homo sapiens, UniProt P03952); assay: phase 1: DXS‐stimulated PKa activity in plasma after oral KVD900; assay type: in vivo; conditions: healthy male volunteers, 600 mg oral powder in capsule, read-out: inhibition of DXS‐stimulated PKa activity compared with pre‐dose
T1 construct: host or cells: human pooled plasma, stimulated with dextran sulphate
T1 sequence (P03952 391-638 limits assumed): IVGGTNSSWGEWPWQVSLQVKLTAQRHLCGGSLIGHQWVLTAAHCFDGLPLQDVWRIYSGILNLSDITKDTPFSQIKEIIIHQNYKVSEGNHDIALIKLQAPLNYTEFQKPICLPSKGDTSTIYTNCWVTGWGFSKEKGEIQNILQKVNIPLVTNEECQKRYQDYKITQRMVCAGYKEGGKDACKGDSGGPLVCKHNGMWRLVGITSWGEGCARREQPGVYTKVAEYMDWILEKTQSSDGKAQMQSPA
T1 sequence (P03952 20-390 partner limits assumed): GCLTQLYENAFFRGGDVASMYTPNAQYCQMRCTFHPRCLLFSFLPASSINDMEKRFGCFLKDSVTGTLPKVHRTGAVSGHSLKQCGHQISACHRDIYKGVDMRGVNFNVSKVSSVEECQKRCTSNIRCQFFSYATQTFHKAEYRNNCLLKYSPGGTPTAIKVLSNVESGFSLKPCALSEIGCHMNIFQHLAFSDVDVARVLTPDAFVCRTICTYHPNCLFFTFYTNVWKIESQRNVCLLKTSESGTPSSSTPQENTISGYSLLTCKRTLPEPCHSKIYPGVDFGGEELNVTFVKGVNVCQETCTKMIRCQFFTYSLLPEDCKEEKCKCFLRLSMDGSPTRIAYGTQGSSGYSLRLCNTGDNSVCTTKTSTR
Protocol: PKa enzyme activity was measured in human pooled plasma (control plasma, Affinity Biologicals) using H‐D‐Pro‐Phe‐Arg‐AFC. The KKS in plasma was stimulated by the addition of dextran sulphate 500 kDa (DXS; Sigma‐Aldrich). PKa activity in the plasma was estimated based on the maximum rate of fluorescence increase. […] Plasma samples were stimulated with 6.25 or 10 µg/ml DXS and PKa enzyme activity was measured as described above. Percent plasma protein binding (PPB %) was determined using Rapid Equilibrium Dialysis (Pierce RED technology, ThermoFisher Scientific). Compounds were spiked into control plasma (final concentration 5 μM) and dialysed against phosphate buffer (pH 7.4) for 5 h at 37°C. Samples were analysed using liquid chromatography‐tandem mass spectrometry to quantify the fraction of unbound compound.
(§2) Participants with HAE were within their intercritical period. Blood samples were collected into 3.2% sodium citrate, centrifuged at 1500 g for 10 min at 4°C, and plasma was stored at −80°C until analysis. Additional information on these trials can be found elsewhere (NCT04349800 and NCT04208412, available at https://clinicaltrials.gov).

HK cleavage [4] = assay: phase 1: capillary immunoassay of HK and cHK in DXS‐stimulated plasma after oral KVD900; assay type: in vivo, human; conditions: 600 mg oral
Protocol: as §1, §2

[5] = test system: plasma prekallikrein (PK); assay: phase 1: capillary immunoassay of PK in DXS‐stimulated plasma after oral KVD900; assay type: in vivo, human; conditions: healthy volunteers, 600 mg oral
Protocol: as §1, §2

FXII = assay: phase 1: capillary immunoassay of FXII and FXIIa in DXS‐stimulated plasma after oral KVD900; assay type: in vivo, human; conditions: healthy volunteers, 600 mg oral
Protocol: as §1, §2

[6] = phase 2: plasma concentrations of KVD900 in HAE subjects; assay type: in vivo; conditions: both sexes, human, HAE Type 1 and Type 2 subjects, 600 mg oral tablets, arithmetic mean, n = 42
Protocol: as §2

PKa [7] = biological target: T1, PKa; assay: phase 2: DXS‐stimulated PKa activity in HAE plasma after oral KVD900; assay type: in vivo; conditions: HAE subjects (n = 12), 600 mg oral tablets; 45 min post‐dose
HK cleavage [8] = assay: phase 2: DXS‐stimulated HK cleavage assay in HAE plasma after oral KVD900; assay type: in vivo, human
Protocol: as §1, §2

PKa [9] = test system: PKa; set-up: method as in PMID 7692967; conditions: cited from earlier work
[10] = six HAE patients, 600 mg oral tablets, 15 min through 4 h post‐dose

Chain of FXIa (P03951 388-625 limits assumed): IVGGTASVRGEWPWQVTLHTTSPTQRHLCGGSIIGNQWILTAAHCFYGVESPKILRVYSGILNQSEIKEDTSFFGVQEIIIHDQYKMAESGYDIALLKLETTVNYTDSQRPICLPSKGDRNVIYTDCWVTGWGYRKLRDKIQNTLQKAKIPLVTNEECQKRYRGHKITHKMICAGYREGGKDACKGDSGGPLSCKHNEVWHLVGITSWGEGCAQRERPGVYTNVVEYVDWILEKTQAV
Chain of FXIa (P03951 19-387 partner limits assumed): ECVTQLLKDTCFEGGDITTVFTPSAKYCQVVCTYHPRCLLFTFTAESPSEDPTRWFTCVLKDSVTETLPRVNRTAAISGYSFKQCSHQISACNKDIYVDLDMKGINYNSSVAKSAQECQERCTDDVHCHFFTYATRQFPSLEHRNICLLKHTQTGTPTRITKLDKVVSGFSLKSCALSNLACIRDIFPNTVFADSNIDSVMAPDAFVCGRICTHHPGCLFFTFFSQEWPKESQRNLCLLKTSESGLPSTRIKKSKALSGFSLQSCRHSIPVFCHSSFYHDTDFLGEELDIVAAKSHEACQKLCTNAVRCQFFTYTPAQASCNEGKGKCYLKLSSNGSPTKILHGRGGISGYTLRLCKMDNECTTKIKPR
Chain of Tissue kallikrein (P06870 25-262): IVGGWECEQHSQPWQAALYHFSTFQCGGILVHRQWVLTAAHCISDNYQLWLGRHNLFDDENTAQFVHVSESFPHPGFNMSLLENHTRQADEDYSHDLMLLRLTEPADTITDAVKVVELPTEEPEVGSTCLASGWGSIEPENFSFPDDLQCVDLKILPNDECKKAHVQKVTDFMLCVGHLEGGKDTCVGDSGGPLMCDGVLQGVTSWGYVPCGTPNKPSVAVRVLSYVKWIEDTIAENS
Chain of FXIIa (P00748 373-615 limits assumed): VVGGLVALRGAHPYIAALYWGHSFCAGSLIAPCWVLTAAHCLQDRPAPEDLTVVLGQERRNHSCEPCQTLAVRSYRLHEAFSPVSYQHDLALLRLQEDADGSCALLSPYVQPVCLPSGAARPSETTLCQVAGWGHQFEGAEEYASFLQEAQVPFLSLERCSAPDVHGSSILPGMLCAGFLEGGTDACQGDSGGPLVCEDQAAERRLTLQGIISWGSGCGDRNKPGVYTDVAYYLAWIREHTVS

COCc1nn(Cc2ccc(Cn3ccccc3=O)cc2)cc1C(=O)NCc1nccc(OC)c1F [KVD900]
IC50 (Tissue kallikrein): > 10 µM | IC50 (FXIIa): > 40 µM | IC50 (FXIa): > 40 µM | IC50 (FXa): > 10 µM | IC50 (FVIIa): > 10 µM | IC50 (Plasmin): > 40 µM | IC50 (Thrombin): > 40 µM | IC50 (Trypsin): > 40 µM | IC50 (Beta‐secretase 1): > 10 µM | IC50 (Cathepsin D): > 10 µM | IC50 (Cathepsin G): > 10 µM | IC50 (Renin): > 10 µM | IC50 [1]: > 10 µM | IC50 (Tryptase): > 10 µM | fraction unbound at 5 h, 5 μM [2]: 0.23 | DXS‐stimulated generation of cHK (PKa‐mediated HK cleavage; 300 nM): fully inhibited | DXS‐stimulated generation of cHK (PKa‐mediated HK cleavage; 1000 nM): fully inhibited | IC50 (PKa‐mediated HK cleavage; control plasma, 15 min pre‐treatment, 6.25 µg/ml DXS on ice 17 min, read-out: IC50, protection of HK from DXS‐stimulated depletion): ~0.2 µM | inhibition at 600 mg (PKa [3]; 1 h post‐dose): > 97% | inhibition at 600 mg (PKa [3]; 4 h post‐dose): > 97% | inhibition at 600 mg (PKa [3]; 6 h post‐dose): > 90% | inhibition at 600 mg (PKa [3]; 8 h post‐dose): > 83% | time for which DXS‐stimulated generation of cHK was not detectable (HK cleavage [4]): at least 6 h | cHK levels in DXS‐stimulated plasma (HK cleavage [4]; healthy volunteers, 1, 6 and 8 h post‐dose): not significantly increased compared with pre‐dose without DXS | HK remaining after DXS‐stimulation (HK cleavage [4]; healthy volunteers, 1 to 8 hours post‐dose): > 65% | PK after DXS‐stimulation, % of unstimulated plasma ([5]; 1 h post‐dose): 82.7 ± 4.4% | PK after DXS‐stimulation, % of unstimulated plasma ([5]; 6 h post‐dose): 87.0± 4.1% | DXS‐stimulated decrease in PK ([5]; later time points (≥8 h)): comparable to the PK decrease observed in pre‐dose samples | FXII protection in DXS‐stimulated plasma compared with pre‐dose (FXII; 1 and 6 h post‐dose): non‐significant | reduction of DXS‐stimulated generation of FXIIa compared with pre‐dose (FXII; 1 h post‐dose): > 90% | reduction of DXS‐stimulated generation of FXIIa compared with pre‐dose (FXII; 6 h post‐dose): > 90% | reduction of DXS‐stimulated generation of FXIIa compared with pre‐dose (FXII; 8 h post‐dose): > 90% | Cmax [6]: 6570 ng/mL | Tmax [6]: 1.2 h | inhibition at 600 mg (PKa [7]): ≥ 95% | time post‐dose from which inhibition of HK cleavage (and PKa activity) is observed (HK cleavage [8]; 600 mg oral): 15 min | cHK levels in DXS‐stimulated plasma (HK cleavage [8]; [10]): comparable with unstimulated plasma | protection from DXS‐stimulated depletion of HK (HK cleavage [8]; [10]): strongly protected

B1: DX‐2930: PKa inhibitor DX‐2930 (lanadelumab), approved treatment for HAE (antibody, chains of the INN, looked up, V domains shown)
VH: EVQLLESGGGLVQPGGSLRLSCAASGFTFSHYIMMWVRQAPGKGLEWVSGIYSSGGITVYADSVKGRFTISRDNSKNTLYLQMNSLRAEDTAVYYCAYRRIGVPRRDEFDIWGQGTMVTVSS
VL: DIQMTQSPSTLSASVGDRVTITCRASQSISSWLAWYQQKPGKAPKLLIYKASTLESGVPSRFSGSGSGTEFTLTISSLQPDDFATYYCQQYNTYWTFGQGTKVEIK
reported Kon for PKa (PKa [9]): 3.4e+06 M⁻¹ s⁻¹

B2: C1‐INH: serine protease inhibitor (serpin) that covalently binds and inactivates PKa and FXIIa (protein, UniProt P05155 23-500, looked up)
Plasma protease C1 inhibitor: NPNATSSSSQDPESLQDRGEGKVATTVISKMLFVEPILEVSSLPTTNSTTNSATKITANTTDEPTTQPTTEPTTQPTIQPTQPTTQLPTDSPTQPTTGSFCPGPVTLCSDLESHSTEAVLGDALVDFSLKLYHAFSAMKKVETNMAFSPFSIASLLTQVLLGAGENTKTNLESILSYPKDFTCVHQALKGFTTKGVTSVSQIFHSPDLAIRDTFVNASRTLYSSSPRVLSNNSDANLELINTWVAKNTNNKISRLLDSLPSDTRLVLLNAIYLSAKWKTTFDPKKTRMEPFHFKNSVIKVPMMNSKKYPVAHFIDQTLKAKVGQLQLSHNLSLVILVPQNLKHRLEDMEQALSPSVFKAIMEKLEMSKFQPTLLTLPRIKVTTSQDMLSIMEKLEFFDFSYDLNLCGLTEDPDLQVSAMQHQTVLELTETGVEAAAASAISVARTLLVFEVQQPFLFVLWDQQHKFPVFMGRVYDPRA
reported Kon for PKa (PKa [9]): 17000 M⁻¹ s⁻¹

From PMC9544254 (Clinical and Experimental Allergy, 2022)
